Results reported in paper PMC12621189, “Optimization of Selective and CNS Penetrant Alkyne-Based TREK Inhibitors: The Discovery and Characterization of ONO-9517601 (VU6022856) and ONO-7927846 (VU6024391)” (Journal of Medicinal Chemistry, 2025).
Several values for one entry are separate records, joined by “and”; a condition that tells them apart may be missing. Equal values may be shown once. Read-outs that look alike come from different tables or passages of the source.

Legend:
[1] = biological target: T1, human TREK-2 (hTREK-2) (Homo sapiens, UniProt P57789); assay: TREK-2 thallium flux assay (HEK293 cells stably expressing hTREK-2); assay type: cell-based; conditions: human TREK-2, thallium flux; read-out: h TREK-2 Tl+ IC50
T1 construct: expressed in transfected cells
T1 sequence (P57789 1-538): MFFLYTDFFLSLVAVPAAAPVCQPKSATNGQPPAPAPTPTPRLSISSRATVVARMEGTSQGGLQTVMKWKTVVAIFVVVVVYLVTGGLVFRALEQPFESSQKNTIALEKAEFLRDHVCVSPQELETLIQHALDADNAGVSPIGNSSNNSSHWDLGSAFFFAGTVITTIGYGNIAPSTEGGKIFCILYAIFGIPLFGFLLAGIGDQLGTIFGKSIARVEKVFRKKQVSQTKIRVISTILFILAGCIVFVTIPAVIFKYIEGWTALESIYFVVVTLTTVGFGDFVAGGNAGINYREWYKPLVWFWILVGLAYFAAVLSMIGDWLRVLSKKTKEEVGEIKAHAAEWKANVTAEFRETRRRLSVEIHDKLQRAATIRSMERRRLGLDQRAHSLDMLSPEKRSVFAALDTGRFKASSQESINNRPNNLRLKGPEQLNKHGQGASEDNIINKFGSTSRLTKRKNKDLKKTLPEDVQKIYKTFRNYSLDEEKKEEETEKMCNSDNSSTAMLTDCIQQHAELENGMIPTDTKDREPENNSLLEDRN
Protocol: 0.3% DMSO - ΔRatio of 10 μM control compound)}x100
% inhibition vs compound concentration were plotted in XLfit and calculated IC50.
TREK-2 Thallium flux assay
HEK293 cells stably expressing human TREK-2 (hTREK-2) are plated in 384-well plates, cultured overnight, loaded with Thallos dye the following day. Test compounds or control compound (tert-butyl (3-((4-(benzyloxy)-2-methylphenyl)carbamoyl)-4-chlorophenyl)carbamate) or 0.3% DMSO (vehicle control) which are prepared on separate plates are added to the cell plates and incubated for 10 min, and then the cells were treated with thallium stimulus buffer to initiate […]
To measure the efficacy and potency of test compounds, the change in fluorescence intensity (ΔRatio) and % inhibition are calculated using the following equations: […]

[2] = Brain homogenate binding, mouse; assay type: in vitro ADME; conditions: bound
Protocol: concentration), which was aliquoted in triplicate to the ‘bottom half’ of the prepared HTD plate wells. The HTD plate was sealed and incubated for 6 hours at 37 °C. Following incubation, each well (both top and bottom halves) were transferred (20 µL) to the corresponding wells of a 96-shallow-well (V-bottom) plate. The daughter plates were then matrix-matched (DPBS side wells received equal volume of plasma, and plasma side wells received equal volume of DPBS), and extraction solution (120 µL; acetonitrile containing 50 nM carbamazepine as IS) was added to all wells of both daughter plates to precipitate protein and extract test article. […]
The unbound fraction (f u) was calculated following the equation below, and mean values for each species were calculated from 3 replicates.
A similar approach was used to determine the degree of brain homogenate binding, which employed the same methodology and procedure with the following modifications: 1) a final compound concentration of 1 μM was used, 2) naïve rat brains were homogenized in DPBS (1:3 composition of brain: DPBS, w/w) using a Mini-Bead Beater™ machine in order to obtain brain homogenate, which was then treated in the same manner as the plasma samples in the previously described plasma protein binding assay. Fraction unbound for both plasma and brain samples was determined using Equation 4. […]

[3] = IV/PO pharmacokinetic study, rat (SD); assay type: in vivo; conditions: for clearance / Vd / half-life / Cmax: Sprague-Dawley, plasma; for clearance / Vd / half-life: iv 1 mg/kg; for clearance: read-out: CLp; for Vd: read-out: Vss; for half-life: read-out: elimination t1/2 (converted); for Cmax / F (%) po: po 1 mg/kg
[4] = IV/PO pharmacokinetic study, dog (beagle); assay type: in vivo; conditions: for clearance: beagle, dog, iv, read-out: CLp; for clearance / Vd / half-life / Cmax: plasma; for clearance / CLp / Vd / half-life: iv 1 mg/kg (10), 0.5 mg/kg (11); for Vd: read-out: Vss; for half-life: read-out: elimination t1/2 (converted); for Cmax / F (%) po: po 1 mg/kg
[5] = IV/PO pharmacokinetic study, NHP (cyno); assay type: in vivo; conditions: for clearance / Vd / half-life / Cmax: cynomolgus monkey, plasma; for clearance / Vd / half-life: iv 1 mg/kg; for clearance: read-out: CLp; for Vd: read-out: Vss; for half-life: read-out: elimination t1/2 (converted); for Cmax / F (%) po: po 1 mg/kg
[6] = biological target: T2, adenosine A3 (Homo sapiens, UniProt P0DMS8); assay: Radioligand binding, adenosine A3; conditions: for IC50: follow-up binding; for inhibition at 10 µM: radioligand binding displacement
T2 construct: purchased Eurofins
T2 sequence (P0DMS8 1-318): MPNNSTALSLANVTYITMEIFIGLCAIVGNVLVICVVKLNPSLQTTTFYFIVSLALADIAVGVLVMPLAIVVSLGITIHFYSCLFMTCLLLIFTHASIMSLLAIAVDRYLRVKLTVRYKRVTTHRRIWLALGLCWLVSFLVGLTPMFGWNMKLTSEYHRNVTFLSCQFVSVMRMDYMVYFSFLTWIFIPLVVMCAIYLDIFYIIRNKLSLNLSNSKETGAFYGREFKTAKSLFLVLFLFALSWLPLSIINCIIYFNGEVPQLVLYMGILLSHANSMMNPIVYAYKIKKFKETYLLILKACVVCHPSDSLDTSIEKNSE

[7] = biological target: Cav1.2 (Homo sapiens, UniProt Q13936); assay: MPC ion channel panel, Cav1.2; assay type: cell-based
Chain of Cav1.2 (Q13936 whole entry): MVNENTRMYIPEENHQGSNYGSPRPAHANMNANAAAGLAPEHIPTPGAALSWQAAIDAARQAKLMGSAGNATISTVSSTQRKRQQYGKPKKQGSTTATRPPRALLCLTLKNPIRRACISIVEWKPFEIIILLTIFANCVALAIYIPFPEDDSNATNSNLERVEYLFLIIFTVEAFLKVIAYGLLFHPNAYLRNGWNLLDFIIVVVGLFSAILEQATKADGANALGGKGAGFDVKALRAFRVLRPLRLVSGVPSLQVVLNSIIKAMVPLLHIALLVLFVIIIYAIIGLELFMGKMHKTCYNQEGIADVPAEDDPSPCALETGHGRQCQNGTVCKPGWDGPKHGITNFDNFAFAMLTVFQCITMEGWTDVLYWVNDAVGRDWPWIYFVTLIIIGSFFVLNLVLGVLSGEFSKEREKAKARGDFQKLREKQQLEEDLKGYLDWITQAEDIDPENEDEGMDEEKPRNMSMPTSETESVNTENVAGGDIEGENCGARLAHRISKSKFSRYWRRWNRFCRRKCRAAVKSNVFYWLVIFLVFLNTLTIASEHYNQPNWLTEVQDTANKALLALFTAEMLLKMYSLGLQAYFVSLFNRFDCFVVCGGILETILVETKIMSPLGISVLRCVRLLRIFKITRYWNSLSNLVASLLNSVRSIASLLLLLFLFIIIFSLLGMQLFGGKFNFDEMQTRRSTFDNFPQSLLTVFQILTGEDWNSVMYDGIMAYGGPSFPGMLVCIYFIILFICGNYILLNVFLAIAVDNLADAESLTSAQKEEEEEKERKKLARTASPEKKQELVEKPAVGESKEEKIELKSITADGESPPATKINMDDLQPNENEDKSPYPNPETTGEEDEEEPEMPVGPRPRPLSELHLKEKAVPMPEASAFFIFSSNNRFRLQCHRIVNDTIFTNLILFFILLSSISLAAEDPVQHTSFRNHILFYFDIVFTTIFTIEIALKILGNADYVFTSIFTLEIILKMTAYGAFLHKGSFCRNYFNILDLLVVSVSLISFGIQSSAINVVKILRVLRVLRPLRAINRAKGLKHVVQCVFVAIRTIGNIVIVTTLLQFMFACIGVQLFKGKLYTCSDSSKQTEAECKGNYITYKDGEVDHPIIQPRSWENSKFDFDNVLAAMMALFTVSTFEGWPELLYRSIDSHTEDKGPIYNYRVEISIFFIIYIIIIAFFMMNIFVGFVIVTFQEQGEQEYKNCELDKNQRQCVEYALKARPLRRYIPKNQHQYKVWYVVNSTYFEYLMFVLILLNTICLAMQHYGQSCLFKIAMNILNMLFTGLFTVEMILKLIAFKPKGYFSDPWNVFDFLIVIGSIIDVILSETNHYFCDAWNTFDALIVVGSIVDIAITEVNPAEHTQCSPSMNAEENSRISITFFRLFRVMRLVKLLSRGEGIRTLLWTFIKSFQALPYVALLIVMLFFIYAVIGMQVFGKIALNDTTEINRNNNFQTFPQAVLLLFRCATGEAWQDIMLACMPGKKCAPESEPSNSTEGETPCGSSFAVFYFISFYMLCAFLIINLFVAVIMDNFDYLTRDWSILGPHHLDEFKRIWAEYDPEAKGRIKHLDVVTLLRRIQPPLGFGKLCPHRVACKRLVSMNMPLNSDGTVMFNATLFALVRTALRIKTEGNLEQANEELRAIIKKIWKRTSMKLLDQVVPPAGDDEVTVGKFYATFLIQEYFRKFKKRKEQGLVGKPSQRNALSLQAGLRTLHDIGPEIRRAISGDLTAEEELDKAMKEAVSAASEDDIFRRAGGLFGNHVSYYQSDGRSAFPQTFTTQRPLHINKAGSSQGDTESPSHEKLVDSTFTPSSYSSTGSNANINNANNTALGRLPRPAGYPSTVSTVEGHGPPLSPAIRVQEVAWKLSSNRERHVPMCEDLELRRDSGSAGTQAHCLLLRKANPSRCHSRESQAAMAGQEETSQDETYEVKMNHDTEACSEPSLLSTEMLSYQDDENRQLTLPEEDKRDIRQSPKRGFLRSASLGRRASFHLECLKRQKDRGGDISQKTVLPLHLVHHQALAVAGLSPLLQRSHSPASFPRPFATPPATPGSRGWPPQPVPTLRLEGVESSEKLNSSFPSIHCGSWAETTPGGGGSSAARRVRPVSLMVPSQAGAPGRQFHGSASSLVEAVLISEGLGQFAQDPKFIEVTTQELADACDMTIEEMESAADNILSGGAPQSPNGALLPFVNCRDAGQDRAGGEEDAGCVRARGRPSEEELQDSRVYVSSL
Chain of Cav1.2 (Q08289 whole entry partner): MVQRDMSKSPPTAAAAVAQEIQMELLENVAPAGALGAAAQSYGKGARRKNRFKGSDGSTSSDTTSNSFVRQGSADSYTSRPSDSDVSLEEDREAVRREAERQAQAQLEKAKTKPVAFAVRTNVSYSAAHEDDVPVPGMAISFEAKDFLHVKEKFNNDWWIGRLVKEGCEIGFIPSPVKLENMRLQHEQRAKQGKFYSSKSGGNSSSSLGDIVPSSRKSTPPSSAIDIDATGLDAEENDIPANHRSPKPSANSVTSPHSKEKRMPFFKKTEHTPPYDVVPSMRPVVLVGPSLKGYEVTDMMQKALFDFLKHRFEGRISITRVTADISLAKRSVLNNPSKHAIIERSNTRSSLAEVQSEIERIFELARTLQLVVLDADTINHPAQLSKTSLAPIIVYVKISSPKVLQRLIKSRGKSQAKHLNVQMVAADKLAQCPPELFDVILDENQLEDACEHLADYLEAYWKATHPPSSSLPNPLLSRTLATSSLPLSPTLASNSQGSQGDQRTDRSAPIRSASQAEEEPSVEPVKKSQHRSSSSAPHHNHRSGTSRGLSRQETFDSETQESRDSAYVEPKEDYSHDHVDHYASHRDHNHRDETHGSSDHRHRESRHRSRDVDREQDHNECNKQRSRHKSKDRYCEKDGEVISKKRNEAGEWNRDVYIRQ
Chain of Cav1.2 (P54289 25-956 partner limits assumed): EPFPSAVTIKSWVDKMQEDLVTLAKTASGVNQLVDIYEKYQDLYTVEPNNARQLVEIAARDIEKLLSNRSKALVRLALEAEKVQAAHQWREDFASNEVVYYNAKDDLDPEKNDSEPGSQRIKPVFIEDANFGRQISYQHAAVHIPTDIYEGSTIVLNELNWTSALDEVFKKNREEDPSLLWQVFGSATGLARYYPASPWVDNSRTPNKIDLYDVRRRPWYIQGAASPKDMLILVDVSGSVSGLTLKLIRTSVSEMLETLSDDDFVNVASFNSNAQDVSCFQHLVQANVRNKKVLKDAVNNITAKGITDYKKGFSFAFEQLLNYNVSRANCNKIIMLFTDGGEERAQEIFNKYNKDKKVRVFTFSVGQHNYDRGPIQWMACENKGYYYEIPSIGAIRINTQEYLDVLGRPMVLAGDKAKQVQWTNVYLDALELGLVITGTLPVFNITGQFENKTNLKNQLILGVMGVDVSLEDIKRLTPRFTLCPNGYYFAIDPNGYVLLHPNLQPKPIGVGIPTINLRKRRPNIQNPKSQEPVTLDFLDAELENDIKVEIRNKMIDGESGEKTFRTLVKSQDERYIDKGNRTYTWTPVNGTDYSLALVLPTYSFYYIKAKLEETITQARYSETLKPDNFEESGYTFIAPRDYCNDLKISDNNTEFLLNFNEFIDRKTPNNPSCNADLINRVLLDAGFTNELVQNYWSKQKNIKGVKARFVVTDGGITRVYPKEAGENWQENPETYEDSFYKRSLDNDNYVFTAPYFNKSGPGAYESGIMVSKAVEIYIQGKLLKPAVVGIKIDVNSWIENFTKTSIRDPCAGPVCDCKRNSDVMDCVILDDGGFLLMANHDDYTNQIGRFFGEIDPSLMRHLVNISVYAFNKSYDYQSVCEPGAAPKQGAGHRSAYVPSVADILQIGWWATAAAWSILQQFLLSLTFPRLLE
Chain of Cav1.2 (P54289 957-1103 partner limits assumed): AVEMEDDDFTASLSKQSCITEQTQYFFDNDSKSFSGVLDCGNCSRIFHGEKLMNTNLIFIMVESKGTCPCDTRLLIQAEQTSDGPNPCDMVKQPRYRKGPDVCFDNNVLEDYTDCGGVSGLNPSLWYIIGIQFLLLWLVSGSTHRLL

[8] = biological target: HCN4 (Homo sapiens, UniProt Q9Y3Q4); assay: MPC ion channel panel, HCN4; assay type: cell-based
[9] = biological target: Kir2.1 (Homo sapiens, UniProt P63252); assay: MPC ion channel panel, Kir2.1; assay type: cell-based
Chain of Kir2.1 (P63252 whole entry): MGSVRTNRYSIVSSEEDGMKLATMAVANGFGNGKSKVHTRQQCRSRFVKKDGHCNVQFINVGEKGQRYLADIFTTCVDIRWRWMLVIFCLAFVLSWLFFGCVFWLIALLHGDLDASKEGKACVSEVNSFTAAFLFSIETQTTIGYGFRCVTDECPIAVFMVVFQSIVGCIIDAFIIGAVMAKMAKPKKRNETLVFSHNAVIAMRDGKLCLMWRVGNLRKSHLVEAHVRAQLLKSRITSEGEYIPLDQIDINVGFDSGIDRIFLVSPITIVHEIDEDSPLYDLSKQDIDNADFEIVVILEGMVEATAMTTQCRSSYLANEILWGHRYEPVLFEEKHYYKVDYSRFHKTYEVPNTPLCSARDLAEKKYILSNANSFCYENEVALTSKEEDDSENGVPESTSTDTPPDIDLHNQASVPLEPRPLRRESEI

[10] = biological target: KCNQ1/E1 (Homo sapiens, UniProt P51787); assay: MPC ion channel panel, KCNQ1/E1; assay type: cell-based
[11] = biological target: TRAAK (Homo sapiens, UniProt Q9NYG8); assay: K2P family selectivity, TRAAK; assay type: cell-based
[12] = biological target: TASK-1 (Homo sapiens, UniProt O14649); assay: K2P family selectivity, TASK-1; assay type: cell-based
Chain of TASK-1 (O14649 whole entry, species assumed): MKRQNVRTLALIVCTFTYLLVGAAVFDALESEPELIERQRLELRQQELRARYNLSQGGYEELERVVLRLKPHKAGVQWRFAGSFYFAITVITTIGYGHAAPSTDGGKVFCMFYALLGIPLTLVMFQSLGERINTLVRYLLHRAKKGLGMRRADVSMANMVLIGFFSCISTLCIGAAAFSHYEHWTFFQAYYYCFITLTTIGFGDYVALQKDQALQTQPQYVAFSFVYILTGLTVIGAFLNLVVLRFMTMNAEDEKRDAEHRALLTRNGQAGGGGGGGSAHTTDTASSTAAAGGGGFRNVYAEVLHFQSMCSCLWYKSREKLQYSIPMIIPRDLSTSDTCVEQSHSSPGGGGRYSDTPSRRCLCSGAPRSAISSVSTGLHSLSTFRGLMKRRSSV

[13] = Embryo fetal developmental toxicity in vivo
[14] = Rat 4-day dosing general toxicity study; conditions: at NOAEL doses, rat 4-day study

Row | Structure (SMILES) | IC50 [1] [nM] | BHB mouse [2] | clearance [3] [mL/min/kg] | Vd [3] [L/kg] | half-life [3] [h] | Cmax [3] [ng/mL] | F (%) po [3] [%] | clearance [4] [mL/min/kg] | CLp [4] [mL/min/kg] | Vd [4] [L/kg] | half-life [4] [h] | Cmax [4] [ng/mL] | F (%) po [4] [%] | clearance [5] [mL/min/kg] | Vd [5] [L/kg] | half-life [5] [h] | Cmax [5] [ng/mL] | F (%) po [5] [%] | IC50 [6] [nM] | inhibition at 10 µM [6] [%] | other results
1 | CC(=O)N1CCC(n2ncc(Cl)c2C(=O)Nc2ncc(C#Cc3ccccc3)cc2C)CC1 [Compound 10, 1-(1-Acetylpiperidin-4-yl)-4-chloro-N-(3-methyl-5-(phenylethynyl)pyridin-2-yl)-1H-pyrazole-5-carboxamide] | 230 | 99.5% and 99.5, 99.5% | 30 | 2.2 | 1 | 80 | 40 | < 2 | 1.9 | 5.9 | 56 | 315 | 97 | 13.3 | 2.1 | 3.3 | 152 | 34 | 380 | 98 | inhibition at 10 µM [7]: ≤ 50%; inhibition at 10 µM [8]: ≤ 50%; inhibition at 10 µM [9]: ≤ 50%; inhibition at 10 µM [10]: ≤ 50%; inhibition at 10 µM [11]: 84%; TASK-1 inhibition [12]: nothing significant; embryo fetal developmental toxicity [13]: positive; embryo fetal developmental toxicity ([13]; listed as ONO-9517601): positive signal; safety margin based on the AUC [14]: more than 10 fold
2 | CC(=O)N1CC[C@@H](n2ncc(Cl)c2C(=O)Nc2ncc(C#Cc3ccc(F)cc3)cc2C)[C@H](F)C1 [Compound 11, 1-((3R,4R)-1-Acetyl-3-fluoropiperidin-4-yl)-4-chloro-N-(5-((4-fluorophenyl)ethynyl)-3-methylpyridin-2-yl)-1H-pyrazole-5-carboxamide] | 290 | 99.5% | 6.1 | 2.7 | 5.5 | 162 | 57 | < 2 | 1.5 | 7.1 | 76 | 263 | 100 | 6.5 | 4.4 | 9.3 | 260 | 89 | 770 | 91 | inhibition at 10 µM [7]: ≤ 50%; inhibition at 10 µM [8]: ≤ 50%; inhibition at 10 µM [9]: ≤ 50%; inhibition at 10 µM [10]: 60%; embryo fetal developmental toxicity [13]: positive; embryo fetal developmental toxicity ([13]; listed as ONO-7927846): positive signal; safety margin based on the AUC [14]: more than 10 fold
